According to patent publication US20250339409A1, “USES OF PAN BET INHIBITORS” (VYNE THERAPEUTICS INC., priority 2021, published 2025):
Marks after values point to notes of the source that are not given here.

Tested on: anti collagen antibodies induced arthritis (ACAIA)
Test: Anti collagen antibodies induced arthritis (ACAIA) in mice, intra-articular treatment: paw thickness, arthritis clinical score, body weight;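 further: mouse arthritis induced by IV anti-collagen mAb on day 0 plus IP LPS on day 4, with body weight, caliper paw thickness and 0-4 paw score tracked against a day 0 baseline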
[1] = 0.01 mg/kg IA (Group 5), Baseline
[2] = 0.01 mg/kg IA (Group 5), Day 10
[3] = 0.01 mg/kg IA (Group 5), Day 12
[4] = 0.1 mg/kg IA (Group 4), Baseline

Cn1cc(-c2cccc(O)c2Oc2ccccc2)c2cc[nH]c2c1=O [BETi1]
Clinical score of treated leg (Avg.) [1]: 0.00 points | Paw thickness Avg. Delta untreated -treated [1]: −0.08 mm | Paw thickness of treated leg (Avg.) [1]: 2.06 mm | Paw thickness of untreated leg (Avg.) [1]: 1.98 mm | Percent change of weight per day (Av) [1]: 100.00% | Δ clinical score untreated -treated, Avg. Delta [1]: 0.00 points | Clinical score of treated leg (Avg.) (0.01 mg/kg IA (Group 5), Day 3): 0.00 points | Paw thickness Avg. Delta untreated -treated (0.01 mg/kg IA (Group 5), Day 3): 0.02 mm | Paw thickness of treated leg (Avg.) (0.01 mg/kg IA (Group 5), Day 3): 2.12 mm | Paw thickness of untreated leg (Avg.) (0.01 mg/kg IA (Group 5), Day 3): 2.14 mm | Percent change of weight per day (Av) (0.01 mg/kg IA (Group 5), Day 3): 99.39% | Δ clinical score untreated -treated, Avg. Delta (0.01 mg/kg IA (Group 5), Day 3): 0.00 points | Clinical score of treated leg (Avg.) (0.01 mg/kg IA (Group 5), Day 4): 0.00 points | Paw thickness Avg. Delta untreated -treated (0.01 mg/kg IA (Group 5), Day 4): 0.00 mm | Paw thickness of treated leg (Avg.) (0.01 mg/kg IA (Group 5), Day 4): 2.18 mm | Paw thickness of untreated leg (Avg.) (0.01 mg/kg IA (Group 5), Day 4): 2.18 mm | Percent change of weight per day (Av) (0.01 mg/kg IA (Group 5), Day 4): 96.62% | Δ clinical score untreated -treated, Avg. Delta (0.01 mg/kg IA (Group 5), Day 4): 0.00 points | Clinical score of treated leg (Avg.) (0.01 mg/kg IA (Group 5), Day 5): 0.00 points | Paw thickness Avg. Delta untreated -treated (0.01 mg/kg IA (Group 5), Day 5): 0.00 mm | Paw thickness of treated leg (Avg.) (0.01 mg/kg IA (Group 5), Day 5): 2.18 mm | Paw thickness of untreated leg (Avg.) (0.01 mg/kg IA (Group 5), Day 5): 2.17 mm | Percent change of weight per day (Av) (0.01 mg/kg IA (Group 5), Day 5): 89.80% | Δ clinical score untreated -treated, Avg. Delta (0.01 mg/kg IA (Group 5), Day 5): 0.00 points | Clinical score of treated leg (Avg.) (0.01 mg/kg IA (Group 5), Day 6): 0.71 points | Paw thickness Avg. Delta untreated -treated (0.01 mg/kg IA (Group 5), Day 6): 0.05 mm | Paw thickness of treated leg (Avg.) (0.01 mg/kg IA (Group 5), Day 6): 2.34 mm | Paw thickness of untreated leg (Avg.) (0.01 mg/kg IA (Group 5), Day 6): 2.39 mm | Percent change of weight per day (Av) (0.01 mg/kg IA (Group 5), Day 6): 88.03% | Δ clinical score untreated -treated, Avg. Delta (0.01 mg/kg IA (Group 5), Day 6): 0.14 points | Clinical score of treated leg (Avg.) (0.01 mg/kg IA (Group 5), Day 7): 1.86 points | Paw thickness Avg. Delta untreated -treated (0.01 mg/kg IA (Group 5), Day 7): 0.02 mm | Paw thickness of treated leg (Avg.) (0.01 mg/kg IA (Group 5), Day 7): 2.60 mm | Paw thickness of untreated leg (Avg.) (0.01 mg/kg IA (Group 5), Day 7): 2.62 mm | Percent change of weight per day (Av) (0.01 mg/kg IA (Group 5), Day 7): 91.87% | Δ clinical score untreated -treated, Avg. Delta (0.01 mg/kg IA (Group 5), Day 7): −0.29 points | Clinical score of treated leg (Avg.) (0.01 mg/kg IA (Group 5), Day 8): 1.86 points | Paw thickness Avg. Delta untreated -treated (0.01 mg/kg IA (Group 5), Day 8): −0.01 mm | Paw thickness of treated leg (Avg.) (0.01 mg/kg IA (Group 5), Day 8): 2.64 mm | Paw thickness of untreated leg (Avg.) (0.01 mg/kg IA (Group 5), Day 8): 2.63 mm | Percent change of weight per day (Av) (0.01 mg/kg IA (Group 5), Day 8): 89.85% | Δ clinical score untreated -treated, Avg. Delta (0.01 mg/kg IA (Group 5), Day 8): −0.14 points | Clinical score of treated leg (Avg.) [2]: 2.14 points | Paw thickness Avg. Delta untreated -treated [2]: 0.05 mm | Paw thickness of treated leg (Avg.) [2]: 2.68 mm | Paw thickness of untreated leg (Avg.) [2]: 2.73 mm | Percent change of weight per day (Av) [2]: 89.71% | Δ clinical score untreated -treated, Avg. Delta [2]: 0.00 points | Clinical score of treated leg (Avg.) [3]: 2.43 points | Paw thickness Avg. Delta untreated -treated [3]: −0.20 mm | Paw thickness of treated leg (Avg.) [3]: 3.01 mm | Paw thickness of untreated leg (Avg.) [3]: 2.80 mm | Percent change of weight per day (Av) [3]: 92.75% | Δ clinical score untreated -treated, Avg. Delta [3]: −1.00 points | Clinical score of treated leg (Avg.) [4]: 0.00 points | Paw thickness Avg. Delta untreated -treated [4]: −0.04 mm | Paw thickness of treated leg (Avg.) [4]: 2.06 mm | Paw thickness of untreated leg (Avg.) [4]: 2.01 mm | Percent change of weight per day (Av) [4]: 100.00% | Δ clinical score untreated -treated, Avg. Delta [4]: 0.00 points | Clinical score of treated leg (Avg.) (0.1 mg/kg IA (Group 4), Day 3): 0.00 points | Paw thickness Avg. Delta untreated -treated (0.1 mg/kg IA (Group 4), Day 3): −0.05 mm | Paw thickness of treated leg (Avg.) (0.1 mg/kg IA (Group 4), Day 3): 2.18 mm | Paw thickness of untreated leg (Avg.) (0.1 mg/kg IA (Group 4), Day 3): 2.14 mm | Percent change of weight per day (Av) (0.1 mg/kg IA (Group 4), Day 3): 101.00% | Δ clinical score untreated -treated, Avg. Delta (0.1 mg/kg IA (Group 4), Day 3): 0.00 points | Clinical score of treated leg (Avg.) (0.1 mg/kg IA (Group 4), Day 4): 0.00 points | Paw thickness Avg. Delta untreated -treated (0.1 mg/kg IA (Group 4), Day 4): 0.04* mm | Paw thickness of treated leg (Avg.) (0.1 mg/kg IA (Group 4), Day 4): 2.17 mm | Paw thickness of untreated leg (Avg.) (0.1 mg/kg IA (Group 4), Day 4): 2.21 mm | Percent change of weight per day (Av) (0.1 mg/kg IA (Group 4), Day 4): 99.30% | Δ clinical score untreated -treated, Avg. Delta (0.1 mg/kg IA (Group 4), Day 4): 0.00 points | Clinical score of treated leg (Avg.) (0.1 mg/kg IA (Group 4), Day 5): 0.00 points | Paw thickness Avg. Delta untreated -treated (0.1 mg/kg IA (Group 4), Day 5): −0.02 mm | Paw thickness of treated leg (Avg.) (0.1 mg/kg IA (Group 4), Day 5): 2.17 mm | Paw thickness of untreated leg (Avg.) (0.1 mg/kg IA (Group 4), Day 5): 2.15 mm | Percent change of weight per day (Av) (0.1 mg/kg IA (Group 4), Day 5): 91.11% | Δ clinical score untreated -treated, Avg. Delta (0.1 mg/kg IA (Group 4), Day 5): 0.00 points | Clinical score of treated leg (Avg.) (0.1 mg/kg IA (Group 4), Day 6): 1.57** points | Paw thickness Avg. Delta untreated -treated (0.1 mg/kg IA (Group 4), Day 6): 0.06 mm | Paw thickness of treated leg (Avg.) (0.1 mg/kg IA (Group 4), Day 6): 2.57* mm | Paw thickness of untreated leg (Avg.) (0.1 mg/kg IA (Group 4), Day 6): 2.63 mm | Percent change of weight per day (Av) (0.1 mg/kg IA (Group 4), Day 6): 88.63% | Δ clinical score untreated -treated, Avg. Delta (0.1 mg/kg IA (Group 4), Day 6): −0.43 points | Clinical score of treated leg (Avg.) (0.1 mg/kg IA (Group 4), Day 7): 2.00 points | Paw thickness Avg. Delta untreated -treated (0.1 mg/kg IA (Group 4), Day 7): 0.05 mm
